According to patent US20260285850A1, “SUBSTITUTED OXAZOLIDINONES AND IMIDAZOLINONES AS HERBICIDES” (FMC CORPORATION, priority 2023, published 2026):

Columns and labels:
Format in all cases: in vivo
[1] = tested on: barnyardgrass (Echinochloa crus-galli); experiment: Test A preemergence soil spray, visual injury rating 0-100; conditions: 10 days
Summary of the method: (§1)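 Greenhouse test: loam/sand pots received a surfactant-containing formulation, as a preemergence directed soil spray or a postemergence spray on young plants. Injury was judged visually at day 10 relative to untreated controls.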

[2] = tested on: blackgrass (Alopecurus myosuroides); experiment: as above; conditions: 10 days
Summary of the method: as §1

[3] = tested on: corn (Zea mays); experiment: as above; conditions: 10 days
Summary of the method: as §1

[4] = tested on: green foxtail (Setaria viridis); experiment: as above; conditions: 10 days
Summary of the method: as §1

[5] = tested on: kochia (Bassia scoparia); experiment: as above; conditions: 10 days
Summary of the method: as §1

[6] = tested on: oat, wild (wild oat, Avena fatua); experiment: as above; conditions: 10 days
Summary of the method: as §1

[7] = tested on: palmer (palmer amaranth, palmer pigweed, Amaranthus palmeri); experiment: as above; conditions: 10 days
Summary of the method: as §1

[8] = tested on: ragweed (common ragweed, Ambrosia artemisiifolia); experiment: as above; conditions: 10 days
Summary of the method: as §1

[9] = tested on: ryegrass, Italian (italian ryegrass, Lolium multiflorum); experiment: as above; conditions: 10 days
Summary of the method: as §1

[10] = tested on: soybean (Glycine max); experiment: as above; conditions: 10 days
Summary of the method: as §1

[11] = tested on: wheat (Triticum aestivum); experiment: as above; conditions: 10 days
Summary of the method: as §1

[12] = tested on: barnyardgrass (Echinochloa crus-galli); experiment: Test A postemergence application, visual injury rating 0-100; conditions: for Barnyardgrass plant response rating (0-100): postemergence, 0 = no effect, 100 = complete control; for Barnyardgrass plant response rating (0 to 100 scale): Postemergence
Summary of the method: as §1

[13] = tested on: blackgrass (Alopecurus myosuroides); experiment: as above; conditions: for Blackgrass plant response rating (0-100): postemergence, 0 = no effect, 100 = complete control; for Blackgrass plant response rating (0 to 100 scale): Postemergence
Summary of the method: as §1

[14] = tested on: corn (Zea mays); experiment: as above; conditions: for Corn plant response rating (0-100): postemergence, 0 = no effect, 100 = complete control; for Corn plant response rating (0 to 100 scale): Postemergence
Summary of the method: as §1

[15] = tested on: galium (catchweed bedstraw, Galium aparine); experiment: as above; conditions: for Galium plant response rating (0 to 100 scale): Postemergence
Summary of the method: as §1

[16] = tested on: green foxtail (Setaria viridis); experiment: as above; conditions: for Foxtail, Green plant response rating (0-100): postemergence, 0 = no effect, 100 = complete control; for Foxtail, Green plant response rating (0 to 100 scale): Postemergence
Summary of the method: as §1

[17] = tested on: horseweed (Erigeron canadensis); experiment: as above; conditions: for Horseweed plant response rating (0-100): postemergence, 0 = no effect, 100 = complete control; for Horseweed plant response rating (0 to 100 scale): Postemergence
Summary of the method: as §1

[18] = tested on: kochia (Bassia scoparia); experiment: as above; conditions: for Kochia plant response rating (0-100): postemergence, 0 = no effect, 100 = complete control; for Kochia plant response rating (0 to 100 scale): Postemergence
Summary of the method: as §1

[19] = tested on: oat, wild (wild oat, Avena fatua); experiment: as above; conditions: for Oat, Wild plant response rating (0-100): postemergence, 0 = no effect, 100 = complete control; for Oat, Wild plant response rating (0 to 100 scale): Postemergence
Summary of the method: as §1

[20] = tested on: palmer (palmer amaranth, palmer pigweed, Amaranthus palmeri); experiment: as above
Summary of the method: as §1

[21] = tested on: ragweed (common ragweed, Ambrosia artemisiifolia); experiment: as above; conditions: for Ragweed plant response rating (0-100): postemergence, 0 = no effect, 100 = complete control; for Ragweed plant response rating (0 to 100 scale): Postemergence
Summary of the method: as §1

[22] = tested on: ryegrass, Italian (italian ryegrass, Lolium multiflorum); experiment: as above; conditions: for Ryegrass, Italian plant response rating (0-100): postemergence, 0 = no effect, 100 = complete control; for Ryegrass, Italian plant response rating (0 to 100 scale): Postemergence
Summary of the method: as §1

[23] = tested on: soybean (Glycine max); experiment: as above; conditions: for Soybean plant response rating (0-100): postemergence, 0 = no effect, 100 = complete control; for Soybean plant response rating (0 to 100 scale): Postemergence
Summary of the method: as §1

[24] = tested on: wheat (Triticum aestivum); experiment: as above; conditions: for Wheat plant response rating (0-100): postemergence, 0 = no effect, 100 = complete control; for Wheat plant response rating (0 to 100 scale): Postemergence
Summary of the method: as §1

[25] = tested on: barnyardgrass (Echinochloa crusgalli); experiment: Test B flooded paddy test, visual plant response rating 0-100; conditions: 250 g ai/ha, Flood, applied to paddy water, evaluated after 13 days
Summary of the method: (§2)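 Treatment occurs at the 2-leaf stage by adding compound to floodwater standing 3 cm above the soil, a level kept for the whole test. Plants stay in the greenhouse 13 days before visual comparison with controls.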

[26] = tested on: ducksalad (Heteranthera limosa); experiment: as above; conditions: 250 g ai/ha, Flood, applied to paddy water, evaluated after 13 days
Summary of the method: as §2

[27] = tested on: rice (Oryza sativa); experiment: as above; conditions: 250 g ai/ha, Flood, applied to paddy water, evaluated after 13 days
Summary of the method: as §2

[28] = tested on: sedge, umbrella (small-flower umbrella sedge, Cyperus difformis); experiment: as above; conditions: 250 g ai/ha, Flood, applied to paddy water, evaluated after 13 days
Summary of the method: as §2

[29] = 31 g ai/ha, 0 = no effect, 100 = complete control
[30] = 125 g ai/ha, 0 = no effect, 100 = complete control
[31] = 125 g ai/ha, 10 days, 0 is no effect, 100 is complete control
[32] = 31 g ai/ha, postemergence, 10 days, 0 = no effect, 100 = complete control
[33] = 62 g ai/ha, 0 = no effect, 100 = complete control
[34] = 16 g ai/ha, greenhouse 10 days, 0 no effect, 100 complete control

CSCCOC(=O)C1=CCC(NC(=O)C2(C)CN(c3cc(F)cc(F)c3)C(=O)O2)C1 (stereo not shown) [Compound 22]
90: Barnyardgrass plant response rating (0 to 100 scale) [12, 31] | Kochia plant response rating (0 to 100 scale) [18, 31] | Soybean plant response rating (0 to 100 scale) [23, 31] | Wheat plant response rating (0-100) ([24]; 31 g ai/ha, 10 days) | Wheat plant response rating (0 to 100 scale) [24, 31]
0: Barnyardgrass plant response rating (0-100) [1, 29] | Barnyardgrass plant response rating (0 to 100 scale) [1, 30] | Blackgrass plant response rating (0-100) [2, 29] | Foxtail, Green plant response rating (0-100) [4, 29] | Kochia plant response rating (0-100) [5, 29] | Kochia plant response rating (0 to 100 scale) [5, 30] | Oat, Wild plant response rating (0-100) [6, 29] | Amaranth, Palmer plant response rating (0-100) [7, 29] | Ragweed plant response rating (0-100) [8, 29] | Ragweed plant response rating (0 to 100 scale) [8, 30] | Ryegrass, Italian plant response rating (0-100) [9, 29] | Soybean plant response rating (0-100) [10, 29] | Horseweed plant response rating (0-100) ([17]; 31 g ai/ha, 10 days) | Ragweed plant response rating (0-100) ([21]; 31 g ai/ha, 10 days) | Plant response rating, Barnyardgrass (0 to 100 scale, 0 is no effect and 100 is complete control) [25] | Plant response rating, Ducksalad (0 to 100 scale, 0 is no effect and 100 is complete control) [26] | Plant response rating, Rice (0 to 100 scale, 0 is no effect and 100 is complete control) [27] | Plant response rating, Sedge, Umbrella (0 to 100 scale, 0 is no effect and 100 is complete control) [28]
100: Corn plant response rating (0 to 100 scale) [14, 31]
70: Barnyardgrass plant response rating (0-100) ([12]; 31 g ai/ha, 10 days) | Oat, Wild plant response rating (0 to 100 scale) [19, 31] | Ryegrass, Italian plant response rating (0 to 100 scale) [22, 31] | Soybean plant response rating (0-100) ([23]; 31 g ai/ha, 10 days)
60: Wheat plant response rating (0 to 100 scale) [11, 30] | Blackgrass plant response rating (0-100) ([13]; 31 g ai/ha, 10 days) | Galium plant response rating (0-100) [15, 32] | Kochia plant response rating (0-100) ([18]; 31 g ai/ha, 10 days) | Ryegrass, Italian plant response rating (0-100) ([22]; 31 g ai/ha, 10 days)
20: Blackgrass plant response rating (0 to 100 scale) [2, 30] | Corn plant response rating (0-100) [3, 29] | Corn plant response rating (0 to 100 scale) [3, 30] | Oat, Wild plant response rating (0 to 100 scale) [6, 30] | Wheat plant response rating (0-100) [11, 29] | Foxtail, Green plant response rating (0-100) ([16]; 31 g ai/ha, 10 days) | Amaranth, Palmer plant response rating (0-100) [20, 32]
10: Soybean plant response rating (0 to 100 scale) [10, 30]
80: Amaranth, Palmer plant response rating (0 to 100 scale) [7, 30] | Blackgrass plant response rating (0 to 100 scale) [13, 31] | Galium plant response rating (0 to 100 scale) [15, 31] | Foxtail, Green plant response rating (0 to 100 scale) [16, 31] | Amaranth, Palmer / Pigweed, Palmer plant response rating (0 to 100 scale) ([20]; Postemergence, 125 g ai/ha, 10 days, 0 is no effect, 100 is complete control)
30: Foxtail, Green plant response rating (0 to 100 scale) [4, 30] | Horseweed plant response rating (0 to 100 scale) [17, 31]
50: Ryegrass, Italian plant response rating (0 to 100 scale) [9, 30] | Corn plant response rating (0-100) ([14]; 31 g ai/ha, 10 days) | Ragweed plant response rating (0 to 100 scale) [21, 31]
40: Oat, Wild plant response rating (0-100) ([19]; 31 g ai/ha, 10 days)

CC1(C(=O)NC2CC=C(C(=O)NS(=O)(=O)C3CC3)C2)CN(c2cc(F)cc(F)c2)C(=O)O1 (racemic) [Compound 90]
0: Barnyardgrass plant response rating ([1]; 16 g ai/ha, 0 to 100 scale) | Barnyardgrass plant response rating (0-100) [1, 33] | Blackgrass plant response rating ([2]; 16 g ai/ha, 0 to 100 scale) | Blackgrass plant response rating (0-100) [2, 33] | Corn plant response rating ([3]; 16 g ai/ha, 0 to 100 scale) | Corn plant response rating (0-100) [3, 33] | Foxtail, Green plant response rating ([4]; 16 g ai/ha, 0 to 100 scale) | Kochia plant response rating ([5]; 16 g ai/ha, 0 to 100 scale) | Kochia plant response rating (0-100) [5, 33] | Oat, Wild plant response rating ([6]; 16 g ai/ha, 0 to 100 scale) | Oat, Wild plant response rating (0-100) [6, 33] | Ragweed plant response rating ([8]; 16 g ai/ha, 0 to 100 scale) | Ragweed plant response rating (0-100) [8, 33] | Ryegrass, Italian plant response rating ([9]; 16 g ai/ha, 0 to 100 scale) | Ryegrass, Italian plant response rating (0-100) [9, 33] | Soybean plant response rating ([10]; 16 g ai/ha, 0 to 100 scale) | Wheat plant response rating ([11]; 16 g ai/ha, 0 to 100 scale) | Wheat plant response rating (0-100) [11, 33] | Foxtail, Green plant response rating (0 to 100 scale) [16, 34] | Horseweed plant response rating (0 to 100 scale) [17, 34] | Pigweed, Palmer plant response rating (0 to 100 scale) ([20]; Postemergence, 16 g ai/ha, greenhouse 10 days, 0 no effect, 100 complete control) | Ragweed plant response rating (0 to 100 scale) [21, 34] | Plant response rating, Barnyardgrass (0 to 100 scale, 0 is no effect and 100 is complete control) [25] | Plant response rating, Ducksalad (0 to 100 scale, 0 is no effect and 100 is complete control) [26] | Plant response rating, Rice (0 to 100 scale, 0 is no effect and 100 is complete control) [27] | Plant response rating, Sedge, Umbrella (0 to 100 scale, 0 is no effect and 100 is complete control) [28]
10: Foxtail, Green plant response rating (0-100) [4, 33] | Pigweed, Palmer plant response rating ([7]; 16 g ai/ha, 0 to 100 scale) | Soybean plant response rating (0-100) [10, 33] | Blackgrass plant response rating (0 to 100 scale) [13, 34]
50: Oat, Wild plant response rating (0-100) ([19]; 62 g ai/ha, 10 days)
80: Blackgrass plant response rating (0-100) ([13]; 62 g ai/ha, 10 days) | Foxtail, Green plant response rating (0-100) ([16]; 62 g ai/ha, 10 days) | Kochia plant response rating (0-100) ([18]; 62 g ai/ha, 10 days)
30: Barnyardgrass plant response rating (0 to 100 scale) [12, 34] | Corn plant response rating (0 to 100 scale) [14, 34] | Ragweed plant response rating (0-100) ([21]; 62 g ai/ha, 10 days) | Soybean plant response rating (0 to 100 scale) [23, 34]
20: Pigweed, Palmer plant response rating (0-100) [7, 33] | Oat, Wild plant response rating (0 to 100 scale) [19, 34] | Ryegrass, Italian plant response rating (0 to 100 scale) [22, 34]
100: Corn plant response rating (0-100) ([14]; 62 g ai/ha, 10 days)
60: Horseweed plant response rating (0-100) ([17]; 62 g ai/ha, 10 days)
70: Kochia plant response rating (0 to 100 scale) [18, 34] | Pigweed, Palmer plant response rating (0-100) ([20]; 62 g ai/ha, postemergence, 10 days, 0 = no effect, 100 = complete control) | Ryegrass, Italian plant response rating (0-100) ([22]; 62 g ai/ha, 10 days) | Wheat plant response rating (0-100) ([24]; 62 g ai/ha, 10 days)
90: Barnyardgrass plant response rating (0-100) ([12]; 62 g ai/ha, 10 days)
40: Galium plant response rating (0 to 100 scale) [15, 34] | Soybean plant response rating (0-100) ([23]; 62 g ai/ha, 10 days) | Wheat plant response rating (0 to 100 scale) [24, 34]
